# Source: ChEMBL document CHEMBL1201862, “PubChem BioAssay data set” (2004)
#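 Where inhibition never reached the appropriate level, the endpoint shown equals the highest concentration tested. Otherwise, values were interpolated linearly from a five-concentration, 48-hour dose response in 96-well plates. Here, GI50 denotes the concentration required for 50% inhibition of growth.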 Active and inactive are the calls of the source. No stated cut-off is given here; in the data, active = GI50 up to about 1.1 µM and inactive = higher.
# How the values were obtained:
# Experiment in all cases: NCI anticancer screen, dose series, 48 h
# [1] = system: M19-MEL
# [2] = system: LXFL 529
# [3] = system: HOP-18
# [4] = system: DMS-114
# [5] = system: 786-0
# [6] = system: SNB-78
# [7] = system: RXF 631
# [8] = system: MDA-N
# [9] = system: Hs-578T
SMILES,GI50 [1],GI50 [2],GI50 [3],GI50 [4],GI50 [5],GI50 [6],GI50 [7],GI50 [8],GI50 [9]
Cc1c(OC(C)C(=O)O)ccc2c(-c3ccccc3)cc(=O)oc12 (centres undefined),> 100 µM (inactive),> 100 µM (inactive),> 100 µM (inactive),> 100 µM (inactive),> 100 µM (inactive),> 100 µM (inactive),> 100 µM (inactive),–,–
CC(C)C(=O)Cc1ccc2ccccc2n1,–,–,–,–,> 100 µM (inactive),–,–,55.2 µM (inactive),> 100 µM (inactive)
COc1ccc(-c2cs/c(=N\c3ccccc3)n2CCCN(C)C)cc1,–,–,–,–,–,–,–,30.6 µM (inactive),–
CCN(CC)CCO[Si](OCCN(CC)CC)(OCCN(CC)CC)OCCN(CC)CC,> 100 µM (inactive),–,–,> 100 µM (inactive),–,–,> 100 µM (inactive),–,–
O=C(Nc1ccc(Cl)c(Cl)c1)C(=O)C(C(=O)c1ccccc1F)C1OC(=O)c2ccccc21 (centres undefined),14.6 µM (inactive),17.6 µM (inactive),–,18.7 µM (inactive),–,11.2 µM (inactive),–,–,–
NC(=O)OCC(COc1ccc(Cl)cc1)OC(=O)c1cc([N+](=O)[O-])cc([N+](=O)[O-])c1 (centres undefined),–,> 100 µM (inactive),> 100 µM (inactive),35.1 µM (inactive),41.6 µM (inactive),> 100 µM (inactive),> 100 µM (inactive),–,–
ON(Cc1ccccc1)C(=S)c1ccccc1,6.58 µM (inactive),1.66 µM (inactive),15.9 µM (inactive),2.22 µM (inactive),4.82 µM (inactive),31.8 µM (inactive),5.38 µM (inactive),6.81 µM (inactive),> 100 µM (inactive)
CSc1sc(C)cc1-c1nsc(=O)o1,–,–,–,–,> 100 µM (inactive),–,–,> 100 µM (inactive),> 100 µM (inactive)
COc1ccc2c(c1)OC(c1ccccc1O)CC2=O (centres undefined),–,21.7 µM (inactive),5.64 µM (inactive),–,40.5 µM (inactive),26.5 µM (inactive),–,–,–
N=c1n(C(=O)N2CCCC2)c2cc(Cl)ccc2n1C1=NCCN1,–,–,–,–,54 µM (inactive),–,–,61.8 µM (inactive),> 100 µM (inactive)
O=C1C(Cl)C2(CC(/C=C/c3cccs3)=NN2c2cccc(S(=O)(=O)O)c2)N1c1nc2ccccc2s1 (centres undefined),–,–,–,–,94.6 µM (inactive),–,–,> 100 µM (inactive),> 100 µM (inactive)
C#CCN(Cc1ccc2nc(-c3ccccc3)c(Cl)nc2c1)c1ccc(F)cc1,–,–,–,–,> 100 µM (inactive),–,–,> 100 µM (inactive),> 100 µM (inactive)
O=C(NC(Cc1ccc(Cl)cc1)C(=O)O)c1ccc(I)cc1 (centres undefined),> 100 µM (inactive),–,> 100 µM (inactive),–,–,> 100 µM (inactive),–,–,–
Brc1cc(CCOC2CCCCO2)c(-c2sccc2CCOC2CCCCO2)s1 (centres undefined),–,–,–,–,35.1 µM (inactive),–,–,40.3 µM (inactive),13.9 µM (inactive)
CC1CC(c2ccccc2)=Nc2ccccc2S1 (centres undefined),97.3 µM (inactive),> 100 µM (inactive),–,> 100 µM (inactive),–,> 100 µM (inactive),> 100 µM (inactive),–,–
CCc1ncc(C(C)(O)c2ccccc2)n1Cc1ccccc1 (centres undefined),–,–,–,–,–,–,–,–,33.4 µM (inactive)
Cn1c(=O)c(Cl)c(N=[N+]=[N-])c2ccccc21,–,–,–,–,–,–,–,84.1 µM (inactive),> 100 µM (inactive)
CC1=CC(=O)CC2(C)CCC(C(C)CC(=O)CC(C)C)CC12 (centres undefined),–,–,–,–,16.4 µM (inactive),–,–,–,> 100 µM (inactive)
CC(O)(P(=O)(O)O)P(=O)(O)OCC(O)CN1CCOCC1 (centres undefined),–,–,–,–,> 100 µM (inactive),–,–,> 100 µM (inactive),> 100 µM (inactive)
CCCCCCCc1cscc1-c1cscc1Br,–,–,–,–,57 µM (inactive),–,–,35.8 µM (inactive),–
C=CCNC(=O)N(CCC)CCCC(NC(C)=O)C(=O)NCc1ccccc1 (centres undefined),> 100 µM (inactive),> 100 µM (inactive),16.3 µM (inactive),> 100 µM (inactive),> 100 µM (inactive),–,> 100 µM (inactive),–,–
CC(C)C1=C(O)C(=O)C2=C(C1=O)C(OC=O)C(O)C1C(C)(C)CCCC21C (centres undefined),–,–,–,–,4.09 µM (inactive),–,–,7.31 µM (inactive),8.51 µM (inactive)
CCOC(=O)Cc1cc(OC)c(OC)cc1/C(Cl)=C(\CO)c1ccc(OC)c(OC)c1,> 100 µM (inactive),–,> 100 µM (inactive),66.5 µM (inactive),–,59 µM (inactive),> 100 µM (inactive),–,–
C=C(C)C1Cc2c(cc(O)c3c(=O)c4ccccc4n(C)c23)O1 (centres undefined),–,34 µM (inactive),16 µM (inactive),> 100 µM (inactive),–,35.6 µM (inactive),37 µM (inactive),–,–
COc1cc(C2c3cc4c(cc3[C@@H](Nc3cccc(CO)c3)C3COC(=O)[C@H]23)OCO4)cc(OC)c1O (some centres undefined),0.871 µM (active),–,1.1 µM (active),0.427 µM (active),–,–,–,–,–
COC1=CC(=O)[C@@]2(C)C(C)[C@H](c3ccccc3)[C@H]2C1=O (some centres undefined),> 100 µM (inactive),> 100 µM (inactive),–,–,> 100 µM (inactive),> 10 µM (inactive),> 100 µM (inactive),–,–
COC(=O)N[C@H](C(=O)NC(OCc1ccccc1)C1COC(C)(C)O1)C(C)O[Si](C)(C)C(C)(C)C (some centres undefined),–,–,–,–,> 100 µM (inactive),–,–,> 100 µM (inactive),> 100 µM (inactive)
OC1(c2ccc(Cl)cc2)c2ccc3ccccc3c2C2=N[C@H]3CCCC[C@@H]3N21 (some centres undefined),–,–,–,–,–,–,–,10.6 µM (inactive),1.19 µM (inactive)
O=c1c2cc(I)ccc2nc(-c2cccs2)n1O,–,–,–,–,55.2 µM (inactive),–,–,51.2 µM (inactive),–
S=C=NCCc1ccccc1 [PHENETHYLISOTHIOCYANATE],0.753 µM (active),0.212 µM (active),–,0.382 µM (active),0.188 µM (active),0.818 µM (active),–,–,–
